In patent US9975881B2, “Compound” (ASTRAZENECA AB, priority 2011, dated 2018):

What was measured:
[1] = Dog half-life (measured), in vivo pharmacokinetics; conditions: male, 1 mg/kg; elimination half-life in plasma, intravenous 30 minute infusion, beagle dog, mean of a minimum of two dogs
Description: The following describes the methods used to obtain in vivo pharmacokinetic parameters in the male beagle dog. It is applicable for use with any compound but may need modification based on such parameters as solubility, assay sensitivity, anticipated clearance and half-life, when the default formulation, dose level or sampling intervals may be inappropriate. The method described here represents a standard approach from which justified and documented modifications can be made.
A standard dose solution of 1 mg·mL^−1 was prepared. The recommended dose vehicle (if the compound was not sufficiently soluble in isotonic saline) was 10%/o DMSO:90% sterile water or saline with pH adjustment using 1 M HCl or NaOH. […]
Blood samples (˜1 ml) were taken into EDTA treated sampling tubes and plasma was prepared by centrifugation (3 minutes at 13000 rpm) soon after sample collection. Samples were taken at pre determined times over 24 hours (e.g. 0, 5, 15, 30, 35, 45, 60, 90, 120, 180, 240, 300, 360, 420, 720, 1440 minutes). The concentration of the analyte(s) was quantitatively determined in plasma by mass spectrometry. […]
To each of the test samples, dose tests, standards and QCs 100 μL (90 μl for dose tests, standards and QCs) of methanol was added followed by 100 μl of internal standard. […] Aliquots (120 μL) of each sample were transferred into a microtitre plate ready for analysis via HPLC/MS-MS. […]

plasma proteins = assay: Human plasma protein binding (hPPB), equilibrium dialysis; format: in vitro ADME; conditions: human plasma pH 7.4, 37° C., 18 hours, 10 μM
Description: Measurement of Human Plasma Protein Binding (hPPB)
The extent of binding of a drug to plasma proteins is a crucial factor in determining in vivo potency and pharmacokinetics. The method used for determining the extent of plasma protein binding involves equilibrium dialysis of the compound between plasma and buffer at 37° C. The concentrations of compound in the plasma and buffer are then determined using high pressure liquid chromatography (HPLC) with mass spectroscopy (MS) detection. The dialysis method involves the use of mixtures of up to 10 compounds simultaneously. At the concentrations used in the assay, there is no significant difference in the results when compounds are run singly or in mixtures.
Membranes (molecular weight cut-off 5000) were first prepared by soaking in the dialysis buffer for a minimum of 1 hour. […]
The samples and standards were then analysed using HPLC with MS detection, which allows deconvolution of the mixtures of compounds. […]
The chromatograms were processed using MassLynx software that automatically calculates a calibration curve for each compound in a mixture and then interpolates the concentrations of buffer and plasma samples. […] The percentage bound was calculated from the MassLynx data using the following equation: […]
The % free (100-% bound) for each compound was calculated from the concentration data, and then recorded.

half-life [1]: 3.7 h | human plasma protein binding (% free) (plasma proteins): 0.11 (±0.05) % free
SMILES: CC1CN(S(=O)(=O)Nc2cc(O[C@H](C)[C@@H](O)CO)nc(SCc3ccc(F)cc3)n2)C1 [Example 1, N-(6-((2R,3S)-3,4-Dihydroxybutan-2-yloxy)-2-(4-fluorobenzylthio)pyrimidin-4-yl)-3-methylazetidine-1-sulfonamide]
